We go through eight compounds from PubChem BioAssay AID330 (DTP/NCI, 2004).

“And” between values parts separate entries of the source, which are not always exact repeats. Equal entries are not always repeated. Inconclusive results and toxic doses are left out. Numbered stars: 1 amine (or outer) side, 2 acyl side, 3 side chain; on linkers, the order of the positions; unused ones are H or OH. Bridge positions count the residues as written; N and C are the ends. Square brackets hold non-standard residues; d marks the D form. Peptide text beside a SMILES is read from it. ξ: configuration not given here. X1 = CC[C@@H](C)[C@H](N[*:1])[C@H](O)CC(=O)OC(C(=O)C(C)C(=O)[*:2])C(C)C; ξNMeY = CNC(Cc1ccc(O)cc1)C(=O)O; ξNMeL = CNC(CC(C)C)C(=O)O; ξL = CC(C)CC(N)C(=O)O; ξT = CC(O)C(N)C(=O)O; ξP = O=C(O)C1CCCN1

In this experiment the test system is P388 leukemia ip, CD2F1 mice, survival T/C. The experiment is described as follows: NCI In Vivo Anticancer Drug Screen. Data for tumor model P388 Leukemia (intraperitoneal) in CD2F1 (CDF1) mice. The settings on record: endpoint: median survival time, higher = longer survival. The gist of the method:
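Mice carrying the transplanted tumor received test compound or vehicle. Survival was recorded in each group, and the value is the treated-group measurement divided by that of the vehicle-treated control group.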

Consider `NC(=O)C1=C(C(=O)O)CCC1`, for which the T/C by setting is: (dose: 25.0 mg/kg/injection, schedule: Q01DX009 (ip), vehicle: distilled water + Tween-80) 99 % of control; (dose: 50.0 mg/kg/injection, schedule: Q01DX009 (ip), vehicle: distilled water + Tween-80) 100 % of control; (dose: 100.0 mg/kg/injection, schedule: Q01DX009 (ip), vehicle: distilled water + Tween-80) 98 % of control; (dose: 200.0 mg/kg/injection, schedule: Q01DX009 (ip), vehicle: distilled water + Tween-80) 96 % of control; (dose: 400.0 mg/kg/injection, schedule: Q01DX009 (ip), vehicle: distilled water + Tween-80) 92 % of control.
As to `Cc1cn(C2CC(O)C(CNC(=O)CCl)O2)c(=O)[nH]c1=O` (stereo not drawn), the T/C is 105 % of control (dose: 50.0 mg/kg/injection, schedule: Q01DX005 (ip), vehicle: saline); 98 % of control (dose: 100.0 mg/kg/injection, schedule: Q01DX005 (ip), vehicle: saline); 109 % of control (dose: 200.0 mg/kg/injection, schedule: Q01DX005 (ip), vehicle: saline).
On to `Cc1ccc2sc3ccccc3c(=O)c2c1`, for which the T/C reads like this: (dose: 50.0 mg/kg/injection, schedule: Q01DX009 (ip), vehicle: saline) 104 % of control; (dose: 100.0 mg/kg/injection, schedule: Q01DX009 (ip), vehicle: saline) 113 % of control; (dose: 200.0 mg/kg/injection, schedule: Q01DX009 (ip), vehicle: saline) 87 % of control.
In the case of `CC(=O)O[C@@H]1C[C@H]2C(C)(C)C(=O)C=C[C@]2(C)[C@H]2CC[C@]3(C)C(=CC(=O)O[C@]3(O)c3ccoc3)[C@@]21C`, the T/C by setting is: (dose: 1.0 mg/kg/injection, schedule: Q01DX005 (ip), vehicle: Klucel (hydroxypropylcellulose) (HPC)) 95 % of control; (dose: 2.0 mg/kg/injection, schedule: Q01DX005 (ip), vehicle: Klucel (hydroxypropylcellulose) (HPC)) 100 % of control; (dose: 4.0 mg/kg/injection, schedule: Q01DX005 (ip), vehicle: Klucel (hydroxypropylcellulose) (HPC)) 95 % of control; (dose: 8.0 mg/kg/injection, schedule: Q01DX005 (ip), vehicle: Klucel (hydroxypropylcellulose) (HPC)) 95 % of control.
Consider `CC[C@@H](C)[C@@H]1NC(=O)C(NC(=O)C(CC(C)C)NC)C(C)OC(=O)C(Cc2ccc(OC)cc2)N(C)C(=O)C2CCCN2C(=O)C(CC(C)C)NC(=O)C(C)C(=O)C(C(C)C)OC(=O)C[C@H]1O` (stereo partly drawn) (H-[ξNMeL][ξT][X1][ξL][ξP][ξNMeY](Me); ester 2-C), for which the T/C is 104 % of control (dose: 0.06 mg/kg/injection, schedule: Q01DX005 (ip), vehicle: water); 112 % of control (dose: 0.13 mg/kg/injection, schedule: Q01DX005 (ip), vehicle: water); 114 % of control (dose: 0.25 mg/kg/injection, schedule: Q01DX005 (ip), vehicle: water); 113 % of control (dose: 0.5 mg/kg/injection, schedule: Q01DX005 (ip), vehicle: saline + alcohol); 124 % of control (dose: 1.0 mg/kg/injection, schedule: Q01DX005 (ip), vehicle: saline + alcohol); 150 % of control (dose: 2.0 mg/kg/injection, schedule: Q01DX005 (ip), vehicle: water). The T/C was 106 % of control (dose: 0.25 micrograms/kg/injection, schedule: Q01DX005 (ip), vehicle: saline + alcohol); 110 % of control (dose: 0.5 micrograms/kg/injection, schedule: Q01DX005 (ip), vehicle: saline + alcohol); 96 % of control (dose: 1.0 micrograms/kg/injection, schedule: Q01DX005 (ip), vehicle: saline + alcohol); 100 % of control (dose: 2.0 micrograms/kg/injection, schedule: Q01DX005 (ip), vehicle: saline + alcohol).
Regarding `N#CC1SC(C#N)C(c2ccc(Cl)cc2)OC1c1ccc(Cl)cc1` (stereo not drawn), the T/C is 93 % of control (dose: 6.25 mg/kg/injection, schedule: Q01DX005 (ip), vehicle: saline with Tween-80); 91 % of control (dose: 12.5 mg/kg/injection, schedule: Q01DX005 (ip), vehicle: saline with Tween-80); 90 % of control (dose: 25.0 mg/kg/injection, schedule: Q01DX005 (ip), vehicle: saline with Tween-80); 91 % of control (dose: 100.0 mg/kg/injection, schedule: Q01DX005 (ip), vehicle: saline with Tween-80); 104 % of control (dose: 200.0 mg/kg/injection, schedule: Q01DX005 (ip), vehicle: saline with Tween-80).
Take `CC1(C)C[C@H](O)[C@H]2O[C@@]2(C)C1`: the T/C (dose: 100.0 mg/kg/injection, schedule: Q04DX002 (ip), vehicle: saline) was 95 % of control; the T/C (dose: 200.0 mg/kg/injection, schedule: Q04DX002 (ip), vehicle: saline) was 96 % of control; the T/C (dose: 400.0 mg/kg/injection, schedule: Q04DX002 (ip), vehicle: saline) was 105 % of control.
Take `NC(=O)c1cn(C2OC(CO)C(O)C2O)c2ncnc(N)c12` (stereo not drawn): the T/C is 105 % of control (dose: 0.06 mg/kg/injection, schedule: Q03HX024 (ip), vehicle: saline); 100 % of control (dose: 0.13 mg/kg/injection, schedule: Q01DX009 (ip), vehicle: saline); 111 % of control (dose: 0.13 mg/kg/injection, schedule: Q03HX008 (ip), vehicle: saline); 122 % of control (dose: 0.13 mg/kg/injection, schedule: Q03HX016 (ip), vehicle: saline); 111 % of control (dose: 0.13 mg/kg/injection, schedule: Q03HX024 (ip), vehicle: saline); 111 % of control (dose: 0.25 mg/kg/injection, schedule: Q01DX009 (ip), vehicle: saline). Further, the T/C reads like this: (dose: 0.25 mg/kg/injection, schedule: Q03HX008 (ip), vehicle: saline) 111 % of control; (dose: 0.25 mg/kg/injection, schedule: Q03HX016 (ip), vehicle: saline) 111 % of control; (dose: 0.25 mg/kg/injection, schedule: Q03HX024 (ip), vehicle: saline) 111 % of control; (dose: 0.5 mg/kg/injection, schedule: Q01DX005 (ip), vehicle: saline with Tween-80) 151 % of control; (dose: 0.5 mg/kg/injection, schedule: Q01DX009 (ip), vehicle: saline) 105 % of control; (dose: 0.5 mg/kg/injection, schedule: Q01DX009 (ip), vehicle: suspension in saline) 154 % of control. Moreover, the T/C (dose: 0.5 mg/kg/injection, schedule: Q03HX008 (ip), vehicle: saline) was 111 % of control; the T/C (dose: 0.5 mg/kg/injection, schedule: Q03HX016 (ip), vehicle: saline) is 116 % of control; the T/C (dose: 0.5 mg/kg/injection, schedule: Q03HX024 (ip), vehicle: saline) is 111 % of control; the T/C (dose: 0.5 mg/kg/injection, schedule: Q04DX003 (ip), vehicle: saline) was 105 % of control; the T/C (dose: 1.0 mg/kg/injection, schedule: Q01DX001 (ip), vehicle: saline) is 111 % of control; the T/C (dose: 1.0 mg/kg/injection, schedule: Q01DX005 (ip), vehicle: saline with Tween-80) was 161 % of control. In addition, the T/C is 111 % of control (dose: 1.0 mg/kg/injection, schedule: Q01DX009 (ip), vehicle: saline); 154 % of control (dose: 1.0 mg/kg/injection, schedule: Q01DX009 (ip), vehicle: suspension in saline); 94 % of control (dose: 1.0 mg/kg/injection, schedule: Q03HX008 (ip), vehicle: saline); 122 % of control (dose: 1.0 mg/kg/injection, schedule: Q03HX016 (ip), vehicle: saline); 116 % of control (dose: 1.0 mg/kg/injection, schedule: Q04DX003 (ip), vehicle: saline); 111 % of control (dose: 1.0 mg/kg/injection, schedule: Q08DX002 (ip), vehicle: saline). For the same compound, the T/C reads like this: (dose: 2.0 mg/kg/injection, schedule: Q01DX001 (ip), vehicle: saline) 111 % of control; (dose: 2.0 mg/kg/injection, schedule: Q01DX005 (ip), vehicle: saline with Tween-80) 169 % of control; (dose: 2.0 mg/kg/injection, schedule: Q01DX009 (ip), vehicle: saline) 100 % of control; (dose: 2.0 mg/kg/injection, schedule: Q01DX009 (ip), vehicle: suspension in saline) 94 % of control; (dose: 2.0 mg/kg/injection, schedule: Q04DX003 (ip), vehicle: saline) 111 % of control; (dose: 2.0 mg/kg/injection, schedule: Q08DX002 (ip), vehicle: saline) 111 % of control. Further, the T/C (dose: 4.0 mg/kg/injection, schedule: Q01DX001 (ip), vehicle: saline) is 122 % of control; the T/C (dose: 4.0 mg/kg/injection, schedule: Q04DX003 (ip), vehicle: saline) is 122 % of control and 118 % of control; the T/C (dose: 4.0 mg/kg/injection, schedule: Q08DX002 (ip), vehicle: saline) is 116 % of control; the T/C (dose: 8.0 mg/kg/injection, schedule: Q01DX001 (ip), vehicle: saline) is 111 % of control; the T/C (dose: 8.0 mg/kg/injection, schedule: Q08DX002 (ip), vehicle: saline) is 116 % of control.
